Measurements from patent US20250304973A1, “HIGH-AFFINITY THROMBIN APTAMERS AND METHODS OF USE” (Ayass Bioscience LLC, priority 2024, published 2025).
Entries after “also recorded” stand apart in the source; their conditions may differ.

What was measured:
[1] = tested on: Salmonella typhimurium strains TA98, TA100, TA1535, TA1537 and Escherichia coli strains wp2 [pKM101] and wp2 uvrA; assay: Ames test (Xenometrix Ames MPF PENTA I); type: cell-based; conditions: 0.5 uM to 10 uM; with and without S9
Description: 148. The mutagenic potential of AYA1809002 and AYA1809004 was evaluated using the Ames test with the Xenometrix Ames MPF PENTA I kit, including S9 and Positive Controls (Aniara Diagnostica, code: ACO1-512-S2-P; manufacturer's part number: C01-512-S2-P, West Chester Township, OH).
165. To assess the mutagenicity of the aptamers, we performed Ames test, a widely used assay for evaluating the mutagenicity of chemical compounds. The Ames test is a bac-terial reverse mutation assay that detects the ability of a substance to induce mutations in the DNA of certain strains of bacteria. It utilizes various bacterial strains, including Salmonella typhimurium strains TA98, TA100, TA1535, and TA1537, as well as the Escherichia coli strains wp2 [pKM101]and wp2 uvrA. To evaluate the mutagenic potential of an aptamer, amino acid-requiring bacterial organisms are exposed to different concentrations of the aptamer and mutagenic events are assessed by selecting for reversion events. In this context, the aptamers AYA1809002 and AYA1809004 were supplemented at increasing concentrations ranging from 0.5 uM to 10 uM.

thrombin = thrombin (Homo sapiens, UniProt P00734); assay: Direct thrombin activity inhibition (Thrombin Inhibitor Screening Assay Kit, fluorometric); type: biochemical; parameters: a thrombin enzyme mixture was added to each sample and control well; purchased Abcam ab197007; conditions: different aptamer concentrations; AMC substrate, 360/460 nm, 45 min, 37° C.
Description: 141. A Thrombin Inhibitor Screening Assay Kit (fluorometric) (Abcam, cat #ab197007, Waltham, Boston, MA, USA) was employed to test the direct binding ability and inhibitory potential of the AYA1809002 and AYA1809004 aptamers against thrombin. The procedure was carried out following the standard protocol provided with the kit. […] Subsequently, a thrombin enzyme mixture was added to each sample and control well. Following an incubation period of 20 min, a substrate mixture was introduced into each sample and control well. Fluorescence measurements were taken using a SYNERGY/HTX multi-mode reader (BioTek, Agilent Technologies, Santa Clara, CA 95051, USA) with the excitation/emission wavelengths set at 360/460 nm. The measurements were recorded for 45 min at a temperature of 37° C. while ensuring protection from light.
155. The direct binding and inhibitory capabilities of AYA1809002 and AYA1809004 ap- tamers on thrombin were evaluated using a Thrombin Inhibitor Screening Assay Kit (fluorometric). The procedure was carried out following the standard protocol provided with the kit. […] The fluorescence intensity is then measured over time to assess the thrombin inhibitory potential of the sample. […] The released AMC is detectable through fluorescence measurement at an excitation/emission wavelength of 360/460 nm.

clot-bound thrombin = molecular target: T1, clot-bound thrombin (Homo sapiens, UniProt P00734); assay: Clot-bound thrombin inhibition; type: biochemical; conditions: for inhibition of clot-bound thrombin: washed clots from platelet-rich plasma, fluorogenic substrate, 90 min, 37° C.
T1 construct: from tissue; host or cells: washed fibrin clots formed from platelet-rich plasma of healthy donors
Description: 145. For the inhibition study of clot-bound thrombin, blood samples were collected from healthy donors using citrate-treated tubes and centrifuged at 200×g for 15 min at room temperature. The resulting supernatant consisting of platelet-rich plasma (PRP) was collected and aliquots of 500 μL were transferred to microfuge tubes containing 50 μL of 300 mM CaCl2). The mixture was then incubated for 2 h at 37° C. in an incubator without agitation. The formed clots were washed ten times over the course of 16 h at room temperature; each time, 1 mL aliquots of TBS buffer (50 mM Tris-HCl, 100 mM NaCl, pH 7.4) were added to the clots with mixing. Subsequently, the washed clots were transferred to the assay plate (ThermoFisher Scientific, cat #3915, Waltham, MA, USA). […] After a 20 min incubation period with agitation, a thrombin substrate (, Thrombin substrate III, Fluorogenic, Sigma-Aldrich, cat #605211, St. Louis, MO, USA) was added to each sample at a final concentration of 200 μM. Fluorescence measurements were performed using a SYNERGY/HTX multi-mode reader (BioTek, Agilent Technologies, Santa Clara, CA 95051, USA) with the excitation/emission wavelengths set at 360/460 nm. The measurements were recorded for a total duration of 90 min at a temperature of 37° C.

human citrated plasma = assay: Prothrombin time (PT) assay in human citrated plasma; type: biochemical; conditions: 2 uM, 2 h, versus untreated control
Description: Plasma was prepared by centrifugation for 10 min at 2000×g. In vitro activity assays were performed on ACLTOP analyzer manufactured by Instrumentation Laboratory, which is a type of coagulation analyzer commonly used in clinical laboratories to measure clotting times and assess coagulation parameters. The ACLTOP analyzer is designed to perform a wide range of coagulation tests, including Factor II activity, prothrombin time (PT), activated partial thromboplastin time (APTT), fibrinogen, and other related assays. ACLTOP analyzer uses HemosIL reagents developed by Instrumentation Laboratory company (Bedford, MA, USA) to perform coagulation tests.
PT time was measured using RecombiPlasTin 2G for quantitative determination in human citrated plasma of PT and Fibrinogen on an ACLTOP coagulation analyzer manufactured by Instrumentation Laboratory (Bedford, MA, USA). To assess the activity of the aptamers in a dose-dependent manner in whole blood, human blood samples were collected in citrate-treated tubes. The blood samples were then incubated at room temperature for 2 h in the absence or presence of varying concentrations of the thrombin aptamers. To measure the Prothrombin Time (PT) on the ACLTOP coagulation analyzer, plasma was obtained by centrifuging the samples at 1500×g for 10 min at 4° C. For the dose dependence study, concentrations of 1 uM, 2 uM, 3 uM, and 4 uM of AYA1809002 and AYA1809004 were utilized.
Modified aptamers chemically crosslinked with TAG, PEG, and cholesterol entities at the 3′ end, were purchased from IDT (Integrated DNA Technologies, Coralville, IA, USA). The impact of modified AYA1809002 and AYA1809004 aptamers on Factor II activity, PT, and APTT was evaluated using the same protocol as was used for the unmodified aptamers. Additionally, the potential for reversal was investigated using the respective reverse complement for each aptamer.

Row | Substance | mutagenicity (revertants) [1] | inhibition of thrombin activity (thrombin) | inhibition of clot-bound thrombin (clot-bound thrombin) | increase in PT time (human citrated plasma) | level of clot-bound thrombin inhibition, comparison (clot-bound thrombin; comparison between aptamers and with dabigatran 2 μM)
1 | AYA1809004: ssDNA thrombin aptamer TCGTCAAGGTACGGTTGGGGGGGTGGGTGTTGACGTTGAA (DNA, backbone not given here) | do not exhibit mutagenic properties | dose-dependent inhibition of thrombin activity | inhibit clot-bound thrombin in a concentration-dependent manner | three-fold increases | 
2 | AYA1809002: ssDNA thrombin aptamer GCGGTGTTGCTGGGGTTGGGAGGTTGGAGGAAGCAATCGC | do not exhibit mutagenic properties; also recorded: did not exhibit mutagenic properties | dose-dependent inhibition of thrombin activity | inhibit clot-bound thrombin in a concentration-dependent manner | three-fold increases | higher level of inhibition compared to AYA1809004
